Results on 38 compounds are retold here after patent publication US8053439B2, “Benzophenone derivatives useful for inhibiting formation of microtubule” (Chong Kun Dang Pharmaceutical Corp., priority 2006, dated 2011).

Where two headings read alike, the source gives them in different places.

The subject of the assay is HL60 cells. Put plainly: Inhibition effect of HL60 cell line growth (MTT, 3 days). In kind it is cell-based. The following applies: Homo sapiens, HL-60, 72 h, read-out: HL60 Growth Inhibition. The method, then: 1. Inhibition Effect of HL60 Cell Line Growth
A 10% FBS-contained RPMI1640 badge was used for culturing HL60 cells. The test substance was prepared by dissolving in DMSO to a concentration of 10 mg/ml, and continuously diluting with PBS to a final concentration of 100 μg/ml to 0.03 μg/ml. In a 96-well microplate, 180 μl of the badge containing 6.0×10^4 cells/ml of cells and 20 μl of continuously diluted test substance were added. The mixture was cultured at 37° C. with 5% CO2 atmosphere for 3 days. After completion of the cultivation, 50 μl of a solution of 1.25 mg/ml MTT (3-(4,5-dimethylthiazol-2-yl)-2,5-diphenyltetrazolium bromide) dissolved in PBS was added to all wells, and the resulting mixture was reacted at 37° C. for 3 hours. Thus formed formazan crystals were dissolved in 150 μl of DMSO, and an absorbance was measured at 570 nm.

[1] abbreviates: HL60 cells, 3 days culture, MTT, absorbance 570 nm.

As for `COc1cc(C(=O)c2cc(-c3nccs3)ccc2NC(C)=O)cc(OC)c1OC` [Compound 277, N-(4-(thiazol-2-yl)-2-(3,4,5-trimethoxybenzoyl)phenyl)acetamide], the IC50 under setting [1] worked out at 0.11 µM. Regarding `COc1cc(C(=O)c2cc(-c3nccs3)ccc2N)cc(OC)c1OC` [Compound 278, (2-amino-5-(thiazol-2-yl)phenyl)(3,4,5-trimethoxyphenyl)methanone], the IC50 is 0.03 µM. For the compound `COc1cc(C(=O)c2cc(-c3cccs3)ccc2NC(C)=O)cc(OC)c1OC` [Compound 279, N-(4-(thiophen-2-yl)-2-(3,4,5-trimethoxybenzoyl)phenyl)acetamide], under setting [1], the IC50 was determined as 0.13 µM. On the same count and under the same terms, with `CNc1ccc(-c2ccco2)cc1C(=O)c1cc(OC)c(OC)c(OC)c1` [Compound 282, (5-(furan-2-yl)-2-(methylamino)phenyl)(3,4,5-trimethoxyphenyl)methanone] the figure was 0.15 µM; with `COc1cc(C(=O)c2cc(-c3cccs3)ccc2N)cc(OC)c1OC` [Compound 283, (2-amino-5-(thiophen-2-yl)phenyl)(3,4,5-trimethoxyphenyl)methanone], 0.048 µM; with `COc1cc(C(=O)c2cc(-c3nccs3)ccc2N)cc(CO)c1OC` [Compound 286, (2-amino-5-(thiazol-2-yl)phenyl)(3-(hydroxymethyl)-4,5-dimethoxyphenyl)methanone], 0.07 µM. Still for that read-out and setting: with `COc1cc(C(=O)c2cc(-c3ncco3)ccc2N)cc(OC)c1OC` [Compound 289, (2-amino-5-(oxazol-2-yl)phenyl)(3,4,5-trimethoxyphenyl)methanone] the figure was 0.007 µM. Still for that read-out and setting: to `COc1cc(C(=O)c2cc(-c3ccccn3)ccc2N)cc(OC)c1OC` [Compound 293, (2-amino-5-(pyridin-2-yl)phenyl)(3,4,5-trimethoxyphenyl)methanone] belongs 0.017 µM; to `COc1cc(C(=O)c2cc(-c3ncco3)ccc2NC(C)=O)cc(OC)c1OC` [Compound 296, N-(4-(oxazol-2-yl)-2-(3,4,5-trimethoxybenzoyl)phenyl)acetamide], 1.23 µM; to `COc1cc(C(=O)c2cc(-c3csc(N)n3)ccc2N)cc(OC)c1OC` [Compound 297, (2-amino-5-(2-aminothiazol-4-yl)phenyl)(3,4,5-trimethoxyphenyl)methanone], 0.035 µM. For the compound `COc1cc(C(=O)c2cc(-c3csc(C)n3)ccc2N)cc(OC)c1OC` [Compound 298, (2-amino-5-(2-methylthiazol-4-yl)phenyl)(3,4,5-trimethoxyphenyl)methanone], the IC50 under setting [1] stood at 0.16 µM. The same measure, in the same setting: with `COc1cc(C(=O)c2cc(-c3ccsc3)ccc2NC(C)=O)cc(OC)c1OC` [Compound 300, N-(4-(thiophen-3-yl)-2-(3,4,5-trimethoxybenzoyl)phenyl)acetamide] the figure was 0.17 µM; with `COc1cc(C(=O)c2cc(-c3ccsc3)ccc2N)cc(OC)c1OC` [Compound 301, (2-amino-5-(thiophen-3-yl)phenyl)(3,4,5-trimethoxyphenyl)methanone], 0.08 µM.

`COc1cc(C(=O)c2cc(-c3nccs3)ccc2NS(C)(=O)=O)cc(OC)c1OC` [Compound 308, N-(4-(thiazol-2-yl)-2-(3,4,5-trimethoxybenzoyl)phenyl)methanesulfonamide]: the IC50 under setting [1] stood at 0.19 µM. On the same count and under the same terms, with `COc1cc(C(=O)c2cc(-c3nccs3)ccc2NC=O)cc(OC)c1OC` [Compound 316, N-(4-(thiazol-2-yl)-2-(3,4,5-trimethoxybenzoyl)phenyl)formamide] the figure was 0.14 µM; with `COc1cc(C(=O)c2cc(-c3ccco3)ccc2-n2cncn2)cc(OC)c1OC` [Compound 322, (5-(furan-2-yl)-2-(1H-1,2,4-triazol-1-yl)phenyl)(3,4,5-trimethoxyphenyl)methanone], 0.17 µM; with `COc1cc(C(=O)c2cc(-c3ccco3)ccc2NCCO)cc(OC)c1OC` [Compound 323, (5-(furan-2-yl)-2-(2-hydroxyethylamino)phenyl)(3,4,5-trimethoxyphenyl)methanone], 0.17 µM.

Regarding `COc1cc(C(=O)c2cc(-c3ccco3)ccc2F)cc(OC)c1OC` [Compound 327, (2-fluoro-5-(furan-2-yl)phenyl)(3,4,5-trimethoxyphenyl)methanone], the IC50 under setting [1] worked out at 0.09 µM. With `COc1cc(C(=O)c2cc(-c3ccccn3)ccc2NS(C)(=O)=O)cc(OC)c1OC` [Compound 335, N-(4-(pyridin-2-yl)-2-(3,4,5-trimethoxybenzoyl)phenyl)methanesulfonamide], under setting [1], the IC50 was 0.22 µM. On the same count and under the same terms, with `COc1cc(C(=O)c2cc(-c3cccc(N)c3)ccc2N)cc(OC)c1OC` [Compound 337, (4,5′-diaminophenyl-3-yl)(3,4,5-trimethoxyphenyl)methanone] the figure was 0.19 µM; with `COc1cc(C(=O)c2cc(-c3ccco3)ccc2NCCCO)cc(OC)c1OC` [Compound 341, (5-(furan-2-yl)-2-(3-hydroxypropylamino)phenyl)(3,4,5-trimethoxyphenyl)methanone], 0.11 µM.

Consider `COc1cc(C(=O)c2cc(-c3ccccn3)ccc2-n2cncn2)cc(OC)c1OC` [Compound 346, (5-(pyridin-2-yl)-2-(1H-1,2,4-triazol-1-yl)phenyl)(3,4,5-trimethoxyphenyl)methanone], for which, under setting [1], the IC50 is 0.1 µM.

As for `COc1cc(C(=O)c2cc(-c3nccs3)ccc2-n2cncn2)cc(OC)c1OC` [Compound 347, (5-(thiazol-2-yl)-2-(1H-1,2,4-triazol-1-yl)phenyl)(3,4,5-trimethoxyphenyl)methanone], the IC50 under setting [1] stood at 0.03 µM.

As for `COc1cc(C(=O)c2cc(-c3nccs3)ccc2NCCCO)cc(OC)c1OC` [Compound 348, (2-(3-hydroxypropylamino)-5-(thiazol-2-yl)phenyl)(3,4,5-trimethoxyphenyl)methanone], under setting [1], the IC50 is 0.1 µM. On the same count and under the same terms, with `COc1cc(C(=O)c2cc(-c3ccco3)ccc2-n2ccnc2)cc(OC)c1OC` [Compound 354, (5-(furan-2-yl)-2-(1H-imidazol-1-yl)phenyl)(3,4,5-trimethoxyphenyl)methanone] the figure was 0.11 µM. Consider `COc1cc(C(=O)c2cc(-c3ncco3)ccc2-n2cncn2)cc(OC)c1OC` [Compound 359, (5-(oxazol-2-yl)-2-(H-1,2,4-triazol-1-yl)phenyl)(3,4,5-trimethoxyphenyl)methanone], for which, under setting [1], the IC50 was determined as 0.1 µM. Still for that read-out and setting: to `COc1cc(C(=O)c2cc(-c3ccc[nH]3)ccc2NCCCO)cc(OC)c1OC` [Compound 363, (2-(3-hydroxypropylamino)-5-(1H-pyrrole-2-yl)phenyl)(3,4,5-trimethoxyphenyl)methanone] belongs 0.11 µM; to `COc1cc(C(=O)c2cc(-c3nccs3)ccc2-c2cncnc2)cc(OC)c1OC` [Compound 365, (2-(pyrimidin-5-yl)-5-(thiazol-2-yl)phenyl)(3,4,5-trimethoxyphenyl)methanone], 0.07 µM. The same measure, in the same setting: with `COc1cc(C(=O)c2cc(-c3nccs3)ccc2C(O)CO)cc(OC)c1OC` (centres unmarked) [Compound 372, (2-(1,2-dihydroxyethyl)-5-(thiazol-2-yl)phenyl)(3,4,5-trimethoxyphenyl)methanone] the figure was 0.11 µM. Still for that read-out and setting: to `COC(=O)c1ccc(-c2nccs2)cc1C(=O)c1cc(OC)c(OC)c(OC)c1` [Compound 374, 4-(thiazol-2-yl)-2-(3,4,5-trimethoxybenzoyl)benzoic acid methyl ester] belongs 0.1 µM; to `COc1cc(C(=O)c2cc(-c3nccs3)ccc2-c2cnco2)cc(OC)c1OC` [Compound 375, (2-(oxazol-5-yl)-5-(thiazol-2-yl)phenyl)(3,4,5-trimethoxyphenyl)methanone], 0.04 µM; to `COc1cc(C(=O)c2cc(-c3ccco3)ccc2-n2ccnn2)cc(OC)c1OC` [Compound 379, (5-(furan-2-yl)-2-(1H-1,2,3,-triazol-1-yl)phenyl)(3,4,5-trimethoxyphenyl)methanone], 0.11 µM.

Consider `COc1cc(C(=O)c2cc(-c3ccccn3)ccc2NCCCO)cc(OC)c1OC` [Compound 380, (2-(3-hydroxypropylamino)-5-(pyridin-2-yl)phenyl)(3,4,5-trimethoxyphenyl)methanone], for which the IC50 under setting [1] amounted to 0.11 µM. On the same count and under the same terms, with `COc1cc(C(=O)c2cc(-c3cccs3)ccc2-n2cncn2)cc(OC)c1OC` [Compound 391, (5-(thiophen-2-yl)-2-(1H-1,2,4,-triazol-1-yl)phenyl)(3,4,5-trimethoxyphenyl)methanone] the figure was 0.12 µM; with `COc1cc(C(=S)c2cc(-c3ccco3)ccc2-n2cncn2)cc(OC)c1OC` [Compound 399, (5-(furan-2-yl)-2-(1H-1,2,4-triazol-1-yl)phenyl)(3,4,5-trimethoxyphenyl)methanethione], 0.11 µM; with `COc1cc(C(=O)c2cc(-c3nccs3)ccc2-n2cnnn2)cc(OC)c1OC` [Compound 401, (2-(1H-tetrazol-1-yl)-5-(thiazol-2-yl)phenyl)(3,4,5-trimethoxyphenyl)methanone], 0.03 µM.

`COc1cc(C(=O)c2cc(-c3ccc[nH]3)ccc2-n2cncn2)cc(OC)c1OC` [Compound 409, (5-(1H-pyrrole-2-yl)-2-(1H-1,2,4-triazol-1-yl)phenyl)(3,4,5-trimethoxyphenyl)methanone]: the IC50 under setting [1] was determined as 0.03 µM. Still for that read-out and setting: with `COc1cc(C(=O)c2cc(-c3nccs3)cnc2-n2cncn2)cc(OC)c1OC` [Compound 410, (5-(thiazol-2-yl)-2-(1H-1,2,4-triazol-1-yl)pyridin-3-yl)(3,4,5-trimethoxyphenyl)methanone] the figure was 0.1 µM.
